In patent US10640534B2 (Agios Pharmaceuticals, Inc., priority 2012, dated 2020):

Experiments:
HT1080 cells = experiment: Cellular assay, inhibition of 2-HG production in HT1080 cells; format: cell-based
Protocol: Cells (HT1080 or U87MG) are grown in T125 flasks in DMEM containing 10% FBS, 1× penicillin/streptomycin and 500 ug/mL G418 (present in U87MG cells only). They are harvested by trypsin and seeded into 96 well white bottom plates at a density of 5000 cell/well in 100 ul/well in DMEM with 10% FBS. […] Cells are incubated overnight at 37° C. in 5% CO2. The next day test compounds are made up at 2× the final concentration and 100 ul are added to each cell well. The final concentration of DMSO is 0.2% and the DMSO control wells are plated in row G. The plates are then placed in the incubator for 48 hours. […] The cell plate is placed back in the incubator for another 24 hours. At 72 hours post compound addition, 10 mL/plate of Promega Cell Titer Glo reagent is thawed and mixed. The cell plate is removed from the incubator and allowed to equilibrate to room temperature. Then 100 ul of Promega Cell Titer Glo reagent is added to each well of media. The cell plate is then placed on an orbital shaker for 10 minutes and then allowed to sit at room temperature for 20 minutes. The plate is then read for luminescence with an integration time of 500 ms.

U87MG cells = experiment: Cellular assay, inhibition of 2-HG production in U87MG cells; format: cell-based
Summary of the method: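 HT1080 or U87MG cells (U87MG kept with 500 ug/mL G418) seeded at 5000 cells/well and treated with compound at 0.2% final DMSO. Incubated 48 h at 37 °C. 2-HG inhibition determined by LC-MS. Viability read by CellTiter-Glo luminescence at 72 h post-dose.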

IDH1 R132C = IDH1 R132C (Homo sapiens (Human), UniProt O75874, R132C); experiment: In vitro NADPH depletion assay for IDH1m R132C inhibitors; format: biochemical; conditions: enzyme, read-out: IDH R132C IC50
Sequence of IDH1 R132C (O75874 whole entry R132C): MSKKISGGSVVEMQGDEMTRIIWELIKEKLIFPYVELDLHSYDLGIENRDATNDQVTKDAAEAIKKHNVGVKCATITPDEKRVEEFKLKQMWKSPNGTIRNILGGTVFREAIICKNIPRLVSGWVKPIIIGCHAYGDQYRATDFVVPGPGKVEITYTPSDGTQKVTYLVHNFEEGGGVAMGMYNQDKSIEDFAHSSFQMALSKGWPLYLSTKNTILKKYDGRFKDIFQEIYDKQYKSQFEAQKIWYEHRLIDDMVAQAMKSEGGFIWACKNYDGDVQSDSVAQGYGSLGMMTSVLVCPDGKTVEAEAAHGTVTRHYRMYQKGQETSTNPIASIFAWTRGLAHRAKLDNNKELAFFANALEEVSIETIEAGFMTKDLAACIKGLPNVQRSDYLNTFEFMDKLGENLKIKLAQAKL
Protocol: A test compound is prepared as 10 mM stock in DMSO and diluted to 50× final concentration in DMSO, for a 50 μl reaction mixture. IDH enzyme activity converting alpha-ketoglutarate to 2-hydroxyglutaric acid is measured using a NADPH depletion assay. In the assay the remaining cofactor is measured at the end of the reaction with the addition of a catalytic excess of diaphorase and resazurin, to generate a fluorescent signal in proportion to the amount of NADPH remaining. […] The reaction is started with the addition of 10 μl of Substrate Mix ([…], 5 mM alpha-ketoglutarate, in Assay Buffer) and the mixture is incubated for 90 minutes at room temperature.
The concentration of NADPH and alpha-ketoglutarate in the Substrate Buffer is 20 μM and 1 mM, respectively.

[1] = inhibition of 2-HG production, HT1080 cells, 48 hours
[2] = inhibition of 2-HG production, U87MG cells, 48 hours

| Compound | IC50 (HT1080 cells; Homo sapiens, HT-1080, 48 h) [nM] | IC50 (U87MG cells; Homo sapiens, U-87 MG, 48 h) [nM] | IC50 (HT1080 cells; [1]) [nM] | IC50 (U87MG cells; [2]) [nM] | IC50 (IDH1 R132C) [nM] |
| --- | --- | --- | --- | --- | --- |
| COc1cccnc1N1C(=O)CC[C@H]1C(=O)N(c1cccc(F)c1)[C@H](C(=O)NC1CC(F)(F)C1)c1ccccc1Cl [Compound 17] | 500 to 1000 | 1000 to 2000 |  |  |  |
| (2S)—N-(1-(2-Chlorophenyl)-2-((3,3-difluorocyclobutyl)amino)-2-oxoethyl)-1-(4-cyanopyridin-2-yl)-N-(3-fluoro-5-(methylsulfonyl)phenyl)-5-oxopyrrolidine-2-carboxamide [Compound 110] |  |  | < 100 | < 100 |  |
| N#Cc1ccnc(N2C(=O)CC[C@H]2C(=O)N(c2cccc(-c3cn[nH]c3)c2)[C@H](C(=O)NC2CC(F)(F)C2)c2ccccc2Cl)c1 (single isomer, unassigned) [Compound 200] | < 100 | < 100 |  |  |  |
| (S)-1-(4-Cyanopyridin-2-yl)-N—((S)-2-(3,3-difluorocyclobutylamino)-1-(2-fluorophenyl)-2-oxoethyl)-N-(3,5-difluorophenyl)-5-oxopyrrolidine-2-carboxamide [Compound 208] |  |  | < 100 | < 100 |  |
| O=C(NC1CC(F)(F)C1)[C@H](c1ccccc1Cl)N(C(=O)[C@@H]1CCC(=O)N1c1cc(C(F)(F)F)ccn1)c1cccc(F)c1 [Compound 40] | 100 to 500 | 100 to 500 |  |  |  |
| Cc1cccnc1N1C(=O)CC[C@H]1C(=O)N(c1cccc(F)c1)[C@H](C(=O)NC1CC(F)(F)C1)c1ccccc1Cl [Compound 15] | 100 to 500 | 100 to 500 |  |  |  |
| N#Cc1cccc(N(C(=O)[C@@H]2CCC(=O)N2c2nccc(C#N)n2)[C@H](C(=O)NC2CCC(F)(F)CC2)c2ccccc2Cl)c1 [Compound 178, (S)—N—((S)-1-(2-Chlorophenyl)-2-((4,4-difluorocyclohexyl)amino)-2-oxoethyl)-N-(3-cyanophenyl)-1-(4-cyanopyrimidin-2-yl)-5-oxopyrrolidine-2-carboxamide] | 100 to 500 | < 100 |  |  |  |
| N#Cc1cncc(N(C(=O)[C@@H]2CCC(=O)N2c2cc(C#N)ccn2)[C@H](C(=O)NC2CC(F)(F)C2)c2ccccc2)c1 [Compound 212] | < 100 | < 100 |  |  |  |
| N#Cc1ccnc(N2C(=O)CC[C@H]2C(=O)N(c2cccc(F)c2)[C@H](C(=O)NC2CC(F)(F)C2)c2c(Cl)cccc2Cl)c1 (single isomer, unassigned) [Compound 63] | < 100 | < 100 |  |  |  |
| O=C(NC1CC(F)(F)C1)[C@H](c1ccccc1Cl)N(C(=O)[C@@H]1CCC(=O)N1c1nccc2ccccc12)c1cccc(F)c1 [Compound 16] | 100 to 500 | 500 to 1000 |  |  |  |
| CC(C)(C)c1cccc(N(C(=O)[C@@H]2CCC(=O)N2c2nccc(C#N)n2)[C@H](C(=O)NC2CC(F)(F)C2)c2ccccc2Cl)c1 [Compound 165, (S)—N-(3-(tert-Butyl)phenyl)-N—((S)-1-(2-chlorophenyl)-2-((3,3-difluorocyclobutyl)amino)-2-oxoethyl)-1-(4-cyanopyrimidin-2-yl)-5-oxopyrrolidine-2-carboxamide] | < 100 | < 100 |  |  |  |
| CS(=O)(=O)c1cccc(N(C(=O)[C@@H]2CCC(=O)N2c2nccc(C#N)n2)C(C(=O)NC2CC(F)(F)C2)c2ccccc2Cl)c1 (mixture of isomers) [Compound 102, (2S)—N-(1-(2-Chlorophenyl)-2-((3,3-difluorocyclobutyl)amino)-2-oxoethyl)-1-(4-cyanopyrimidin-2-yl)-N-(3-(methylsulfonyl)phenyl)-5-oxopyrrolidine-2-carboxamide] | < 100 | 100 to 500 |  |  |  |
| O=C(NC1CCC(F)(F)C1)C(c1ccccc1Cl)N(C(=O)[C@@H]1CCC(=O)N1c1ncccn1)c1cccc(F)c1 (mixture of isomers) [Compound 73, (2S)—N-(1-(2-Chlorophenyl)-2-((3,3-difluorocyclopentyl)amino)-2-oxoethyl)-N-(3-fluorophenyl)-5-oxo-1-(pyrimidin-2-yl)pyrrolidine-2-carboxamide] | < 100 | < 100 |  |  |  |
| O=C(NC1CC(F)(F)C1)[C@H](c1ccccc1Cl)N(C(=O)[C@@H]1CCC(=O)N1c1ccncn1)c1cccc(F)c1 [Compound 22] |  |  |  |  | 100 to 500 |
| O=C(NC1CC(F)(F)C1)[C@H](c1ccccc1Cl)N(C(=O)[C@@H]1CCC(=O)N1c1ccc(Cl)cn1)c1cccc(F)c1 [Compound 48] | 100 to 500 | 100 to 500 |  |  |  |
| (S)-tert-butyl 3-(((S)-1-(2-chlorophenyl)-2-((3,3-difluorocyclobutyl)amino)-2-oxoethyl)(3,5-difluorophenyl)carbamoyl)-5-oxopiperazine-1-carboxylate [Compound 97] |  |  | < 100 | < 100 |  |
| O=C(NC1CC(F)(F)C1)[C@H](c1ccccc1Cl)N(C(=O)[C@@H]1COCC(=O)N1c1ncccn1)c1cccc(F)c1 [Compound 45] | 100 to 500 | 100 to 500 |  |  |  |
| N#Cc1ccnc(N2C(=O)CC[C@H]2C(=O)N(c2cccc(OC3CC3)c2)C(C(=O)NC2CC(F)(F)C2)c2ccccc2Cl)n1 (stereo partly drawn) [Compound 192, (2S)—N-(1-(2-Chlorophenyl)-2-((3,3-difluorocyclobutyl)amino)-2-oxoethyl)-1-(4-cyanopyrimidin-2-yl)-N-(3-cyclopropoxyphenyl)-5-oxopyrrolidine-2-carboxamide] | < 100 | < 100 |  |  |  |
